{"source": "ChEMBL document CHEMBL1131412", "about": "“N-[2-[4-(4-Chlorophenyl)piperazin-1-yl]ethyl]-3-methoxybenzamide: a potent and selective dopamine D4 ligand” (J Med Chem, 1998)", "data": [{"target": "T1, 5-hydroxytryptamine receptor 1A (Rattus norvegicus, UniProt P19327)", "T1 sequence (P19327 whole entry)": "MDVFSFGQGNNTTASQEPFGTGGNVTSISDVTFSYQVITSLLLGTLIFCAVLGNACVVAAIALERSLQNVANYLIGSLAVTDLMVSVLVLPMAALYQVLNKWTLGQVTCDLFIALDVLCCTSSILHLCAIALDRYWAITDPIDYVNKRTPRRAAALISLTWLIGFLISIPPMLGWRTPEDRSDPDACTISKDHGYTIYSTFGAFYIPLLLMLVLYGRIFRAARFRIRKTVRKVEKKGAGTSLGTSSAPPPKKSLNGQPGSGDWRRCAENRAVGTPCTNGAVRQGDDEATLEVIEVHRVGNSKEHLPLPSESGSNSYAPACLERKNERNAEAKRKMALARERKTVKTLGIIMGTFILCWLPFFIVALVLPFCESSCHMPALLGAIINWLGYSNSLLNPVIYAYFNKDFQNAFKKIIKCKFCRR", "test": "Binding affinity was measured at the serotonin 5-hydroxytryptamine 1A receptor using [3H]8-OH-DPAT as radioligand in rat hippocampal membrane.", "assay_type": "cell membranes, Hippocampus", "units": {"IC50": "nM"}, "values": [{"smiles": "COc1cccc(C(=O)NCCN2CCN(c3ccc(Cl)cc3)CC2)c1", "IC50": 220}]}, {"target": "T2, Adrenergic receptor alpha-1 (Rattus norvegicus, UniProt P15823+P23944+P43140)", "T2 sequence (P15823 whole entry)": "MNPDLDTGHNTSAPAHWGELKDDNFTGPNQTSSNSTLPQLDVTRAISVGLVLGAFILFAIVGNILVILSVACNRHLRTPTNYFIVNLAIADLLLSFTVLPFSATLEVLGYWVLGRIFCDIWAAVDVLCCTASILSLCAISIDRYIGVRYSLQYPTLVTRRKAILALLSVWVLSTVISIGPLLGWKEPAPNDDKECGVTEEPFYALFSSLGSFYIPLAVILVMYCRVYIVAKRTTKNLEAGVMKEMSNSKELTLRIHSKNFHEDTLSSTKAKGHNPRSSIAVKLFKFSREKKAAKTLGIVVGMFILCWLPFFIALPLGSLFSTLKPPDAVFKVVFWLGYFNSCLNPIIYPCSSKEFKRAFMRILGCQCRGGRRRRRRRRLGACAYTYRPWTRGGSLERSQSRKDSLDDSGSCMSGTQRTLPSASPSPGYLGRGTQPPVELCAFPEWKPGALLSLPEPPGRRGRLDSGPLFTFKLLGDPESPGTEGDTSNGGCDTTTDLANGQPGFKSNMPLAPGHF", "T2 sequence (P23944 whole entry)": "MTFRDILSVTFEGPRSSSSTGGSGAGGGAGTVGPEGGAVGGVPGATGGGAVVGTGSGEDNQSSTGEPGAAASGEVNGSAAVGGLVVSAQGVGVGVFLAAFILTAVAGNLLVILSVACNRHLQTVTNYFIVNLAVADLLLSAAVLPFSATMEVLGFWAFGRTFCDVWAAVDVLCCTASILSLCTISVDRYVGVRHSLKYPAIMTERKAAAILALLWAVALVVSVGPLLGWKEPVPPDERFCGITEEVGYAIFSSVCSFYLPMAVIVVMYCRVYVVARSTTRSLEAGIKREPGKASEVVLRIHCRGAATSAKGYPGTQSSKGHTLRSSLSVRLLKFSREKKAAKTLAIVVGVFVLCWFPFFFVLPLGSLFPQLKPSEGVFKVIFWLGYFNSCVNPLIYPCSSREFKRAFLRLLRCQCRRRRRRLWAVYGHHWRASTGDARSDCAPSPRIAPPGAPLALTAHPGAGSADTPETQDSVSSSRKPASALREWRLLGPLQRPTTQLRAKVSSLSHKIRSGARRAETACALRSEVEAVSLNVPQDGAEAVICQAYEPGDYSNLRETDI", "T2 sequence (P43140 whole entry)": "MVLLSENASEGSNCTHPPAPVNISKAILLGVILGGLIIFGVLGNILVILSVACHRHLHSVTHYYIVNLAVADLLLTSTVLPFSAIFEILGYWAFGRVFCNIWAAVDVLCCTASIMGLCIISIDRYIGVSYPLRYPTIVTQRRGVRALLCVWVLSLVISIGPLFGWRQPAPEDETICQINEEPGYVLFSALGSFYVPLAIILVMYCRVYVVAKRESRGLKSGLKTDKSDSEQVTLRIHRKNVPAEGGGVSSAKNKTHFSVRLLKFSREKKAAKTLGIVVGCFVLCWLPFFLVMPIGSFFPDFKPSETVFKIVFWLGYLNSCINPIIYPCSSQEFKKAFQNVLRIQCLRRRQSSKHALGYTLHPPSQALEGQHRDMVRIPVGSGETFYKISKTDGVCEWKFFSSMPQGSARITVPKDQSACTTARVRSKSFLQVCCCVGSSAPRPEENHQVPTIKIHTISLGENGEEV", "test": "Binding affinity was measured at the Alpha-1 adrenergic receptor using [3H]prazosin as radioligand in rat brain cortex membrane.", "assay_type": "cell membranes", "units": {"IC50": "nM"}, "values": [{"smiles": "COc1cccc(C(=O)NCCN2CCN(c3ccc(Cl)cc3)CC2)c1", "IC50": 270}]}, {"target": "T3, D(4) dopamine receptor (Homo sapiens, UniProt P21917)", "T3 sequence (P21917 whole entry)": "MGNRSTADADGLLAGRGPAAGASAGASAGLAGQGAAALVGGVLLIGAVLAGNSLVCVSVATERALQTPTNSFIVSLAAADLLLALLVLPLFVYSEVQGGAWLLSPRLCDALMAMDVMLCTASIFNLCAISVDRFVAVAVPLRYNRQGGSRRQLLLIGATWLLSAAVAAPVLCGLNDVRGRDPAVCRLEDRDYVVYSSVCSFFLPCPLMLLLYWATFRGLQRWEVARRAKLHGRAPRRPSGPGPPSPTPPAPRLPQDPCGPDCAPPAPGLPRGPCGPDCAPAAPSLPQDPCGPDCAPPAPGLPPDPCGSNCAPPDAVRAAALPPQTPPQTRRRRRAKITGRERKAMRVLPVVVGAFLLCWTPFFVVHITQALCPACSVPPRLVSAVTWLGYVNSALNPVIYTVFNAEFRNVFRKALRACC", "test": "In vitro binding affinity at human cloned Dopamine receptor D4.2 by [3H]YM-09151-2 displacement.", "units": {"IC50": "nM"}, "values": [{"smiles": "COc1ccc(OC)c(C(=O)NCCN2CCN(c3ccccc3OC)CC2)c1", "IC50": 7.8}, {"smiles": "COc1cccc(C(=O)NCCN2CCN(Cc3ccccc3OC)CC2)c1", "IC50": 30}, {"smiles": "COc1cccc(-c2csc(CN3CCN(c4ccccc4OC)CC3)n2)c1", "IC50": 740}, {"smiles": "COc1cccc(C(=O)NCCN2CCN(Cc3ccc(Cl)cc3)CC2)c1", "IC50": 70}, {"smiles": "COc1ccc2c(c1)CC(NC(=O)CN1CCN(c3ccccc3OC)CC1)CC2", "note": "(stereo not given)", "IC50": 470}, {"smiles": "COc1ccccc1N1CCN(CC(=O)NC2CCc3c(cccc3OC)C2)CC1", "note": "(stereo not given)", "IC50": 850}, {"smiles": "COc1cccc(C(=O)CCCN2CCN(c3ccccc3OC)CC2)c1", "IC50": 3.1}, {"smiles": "COc1ccccc1C(=O)NCCN1CCN(c2ccccc2OC)CC1", "IC50": 4}, {"smiles": "COc1ccccc1N1CCN(CCC(=O)NC2CCc3c(cccc3OC)C2)CC1", "note": "(stereo not given)", "IC50": 120}, {"smiles": "COc1ccc2c(c1)C(CCCN1CCN(c3ccccc3OC)CC1)CCC2", "note": "(stereo not given)", "IC50": 280}, {"smiles": "COc1cccc(C(=O)NCCN2CCN(c3ccc(Cl)cc3)CC2)c1", "IC50": 0.057}]}, {"target": "T3, D(4) dopamine receptor", "test": "In vitro binding affinity was measured at the cloned human Dopamine receptor D4.2 using [3H]YM-09151-2 as radioligand.", "units": {"Ki": "nM"}, "values": [{"smiles": "COc1ccccc1N1CCN(CCNC2=Nc3ccccc3OC2)CC1", "Ki": 3}, {"smiles": "COc1ccccc1N1CCN(Cc2ccn(-c3ccccc3)c2)CC1", "Ki": 0.7}]}]}
